The source of these data is US20070098864A1, “PROCESS FOR PREPARING FORMULATIONS OF […] […] SPRAY FREEZING DRYING” (priority 2004, published 2007).

Bounds are passed on as bounds.

A short description of series [1]: Modulated differential scanning calorimetry (glass transition temperature) of THC/inulin powders. It is filed as physicochemical. To be noted: MDSC. The method, then:
Thermal behaviour of the spray freeze dried powders was determined by modulated differential scanning calorimetry (MDSC) on a differential scanning calorimeter (DSC2920, TA Instruments, Gent, Belgium). A modulation amplitude of 0.318° C., a modulation period of 60 seconds and a heating rate of 2° C./min was used. Calibration was performed with indium. Standard aluminium sample pans were used. During measurement, the sample cell was purged with nitrogen at a flow rate of 35 mL/min. Before scanning, the sample pan was heated at 2° C./min to 50° C. to remove all residual moisture. Subsequently, the sample was cooled to −20° C. and then scanned up to 180° C. The glass transition temperature (Tg) was defined as the inflection point of the change in specific heat in the reversing signal.
(In general: In DSC, transitions show as peaks or steps in heat flow.)

Series [2] can be described thus: Stability study of THC (HPLC) in climate chambers. The method, then:
To investigate the degradation of pure THC, 20 mL glass vials were charged with 70 μL of a solution of THC in methanol containing 2.52 mg THC. They were left overnight under a flow of dry nitrogen to allow for methanol evaporation. The resulting thin layers of THC spread over the bottom of the vials (4.5 cm^2). Spray freeze dried and freeze dried material containing THC were weighed in vials. All samples were stored in climate chambers of 20° C./45% RH and 60° C./8% RH. Samples (n=3) were taken at different time intervals and analysed by means of HPLC using the method described by van Drooge et al. (Eur. J. Pharm. Sci. 2004, 21, 511-518). Briefly, samples were extracted with methanol. A Waters 717+ autosampler was used to inject 50 μL of supernatant on a precolumn (HPLC precolum inserts, μBondapak C18 Guardpak) followed by a Chrompack Nucleosil 100 C18 column (4.6×250 mm). Absorbance at 214 nm was measured with a UV detector (Shimadzu SPD-M6A). Chromatograms and peak areas were analysed with an integrator (waters 741 Data Module) and Kromasystem 2000 software. The flow rate of the eluens (methanol/water 92/8 (v/v) plus 5 drops concentrated sulphuric acid per litre eluens) was set at 1.0 mL/min. […] In every series of HPLC-runs some calibration samples were included.

As to `CCCCCc1cc(O)c2c(c1)OC(C)(C)[C@@H]1CCC(C)=C[C@@H]21` [pure THC, Δ^9-tetrahydrocannabinol], in series [1] (pure substance), the Tg was 9.3 °C. In addition, in series [1] (spray freeze dried, Tg of THC), the “1st Tg (° C.)” value came to 9.3 ± 1.0 °C. In addition, the “time to complete degradation” value in series [2] (exposed to air of 20° C./45% RH) is given as no more than 50 days; in series [2] (storage at 60° C./8% RH), no more than 15 days.
